Data on 83 compounds can be found in PubChem BioAssay AID1259418 (Broad Institute, 2018).

Where “and” joins values, the source holds several entries; their conditions need not be identical. Equal values may be shown once. Results filed as inconclusive are left out. Calls of active or inactive are those of the source.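 How the source made its calls: active means fitted half-maximal concentration of signal decrease at or below twice the sample's top tested concentration; inconclusive means flat curve between -70 and -30 percent, or poor fit; inactive means flat within 30 percent, signal rise, or potency above limit.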 Bounds are passed on as bounds.

The target of the test is T. gondii ME49Luc in IFN-y HeLa, luciferase, 72 h. The experiment in a line: inhibitors of Toxoplasma growth in IFN-γ-primed HeLa – cell-based, ME49Luc, luciferase, 72 h, dose response (AID 1259418).
Regarding `COc1ccc(CN2CCC(c3cc4c(ncn4C)c(-c4ccc(OC)cc4)n3)CC2)cc1`, the AC50 was 24.7 µM.

On to `Cc1ccc(-c2coc(-c3ccc(NS(=O)(=O)c4ccc(CC(C)C)cc4)cc3)n2)c(C)c1`, for which the AC50 was > 39 µM (inactive).

Turning to `Cc1ccc(NC(=O)c2cc(-c3cnc(-c4ccccc4)nc3)cn2CC2CC2)cn1`, the concentration at half-maximal activity (AC50) is 10.9 µM.

As for `O=C(Cc1cccnc1)N1CC(=O)N2[C@H](CO)[C@@H](c3ccc(C#CC4CCCCC4)cc3)[C@H]2C1`, the AC50 was 16.4 µM.

Turning to `COc1ccc(-c2nc(NCCN3CCOCC3)c3ccccc3n2)cc1`, the concentration at half-maximal activity (AC50) is 14.2 µM.

`Cc1cccc(OCC(=O)N2CCC3(CC2)Nc2ccc(Cl)cc2-n2cccc23)c1`: the AC50 is 8.26 µM and 14.9 µM.

As for `Cc1nc2c(cnn2-c2ccccc2)c(=O)n1-c1cccc2ccccc12`, the AC50 was 1.32 µM.

On to `Cc1ccc(-c2coc(-c3ccc(NC(=O)c4cccs4)cc3)n2)c(C)c1`, for which the concentration at half-maximal activity (AC50) is 13.8 µM.

As for `CC(C)Cc1ccc(S(=O)(=O)N2CCC3(CC2)NCCN=C3NCc2ccccc2)cc1`, the concentration at half-maximal activity (AC50) was 14.4 µM.

In the case of `N#C[C@@H]1[C@H](c2ccc(-c3cccc(F)c3)cc2)[C@@H](CO)N1C(=O)NC1CCCC1`, the AC50 was 20.4 µM.

With `C=CC[C@@H]1CC=C[C@@H](C)N1C(=O)CCn1c(C)cc(C)nc1=O`, the AC50 is 26.4 µM.

Take `CCOc1ccc(-c2nc(CN(c3ccc(OC)cc3)S(=O)(=O)c3ccccc3)c(C)o2)cc1`: the concentration at half-maximal activity (AC50) is 21.1 µM.

Take `Cc1ccc(CN2CC3CN(Cc4cccc(F)c4)CC3C2)s1` (stereo not drawn): the AC50 was 9.23 µM.

With `CCOc1ccccc1N(Cc1nc(-c2ccc(C)cc2)oc1C)S(=O)(=O)c1cccs1`, the half-maximal activity concentration (AC50) was 9.38 µM.

`CCOc1ccc(-c2nc(CN(c3ccc(OCC)cc3)S(=O)(=O)c3ccccc3)c(C)o2)cc1`: the AC50 is 17.1 µM.

Take `Cc1cc(Nc2cc(N3CCN(C)CC3)nc(Sc3ccc(NC(=O)C4CC4)cc3)n2)n[nH]1`: the AC50 is 13.8 µM.

As to `COc1ccccc1C(=O)Nc1ccc(-c2nc(-c3cc(C)ccc3C)co2)cc1`, the half-maximal activity concentration (AC50) was 5.13 µM.

Consider `COc1cc(Nc2nc(SCc3ccccc3F)nc3ccccc23)cc(OC)c1OC`, for which the AC50 is 20.6 µM.

Regarding `COc1ccc(CNC(=O)CCC2N=C3c4ccccc4N=C(SCc4cccc(F)c4)N3C2=O)cc1` (stereo not drawn), the concentration at half-maximal activity (AC50) is 20.4 µM.

In the case of `O=C(C[C@H]1CC[C@@H]2[C@H](COC[C@@H](O)CN2Cc2ccc(Oc3ccccc3)cc2)O1)N1CCN(c2ccccc2)CC1`, the AC50 is 24 µM.

As to `O=C(NCCCN1CCCC1=O)C1CCN(Cc2cc3ccccc3n2Cc2cccc(F)c2)CC1`, the half-maximal activity concentration (AC50) was 30.3 µM.

As for `COCCNc1nc(-c2ccc(OC)cc2)nc2ccccc12`, the AC50 was 18.4 µM.

Regarding `Cc1ccc(C(=O)N2CCC3(CC2)Nc2ccc(Cl)cc2-n2cccc23)cc1F`, the AC50 is > 39 µM (inactive).

For the compound `O=S(=O)(c1ccc2c(c1)CCCC2)N1CCC2(CC1)NCCN=C2NCc1cc(F)cc(F)c1`, the concentration at half-maximal activity (AC50) is 4.41 µM.

With `CCc1nc(OCC(=O)Nc2ccccc2)c2ccccc2n1`, the AC50 was 27.7 µM.

As for `CC(C)NC(=O)N1CC(=O)N2[C@@H](CO)[C@H](c3ccc(/C=C/c4ccccc4)cc3)[C@@H]2C1`, the AC50 is 16.8 µM.

Consider `Cc1ccc(S(=O)(=O)N2CCC3(CC2)NCCN=C3NCc2cc(F)cc(F)c2)cc1C`, for which the half-maximal activity concentration (AC50) was 30.1 µM.

Consider `CCOc1ccccc1N(Cc1nc(-c2ccccc2)oc1C)S(=O)(=O)c1cccs1`, for which the AC50 is 7.76 µM.

Take `CS(=O)(=O)N1CCC(C(=O)NCCc2csc(-c3cccs3)n2)CC1`: the AC50 was > 39 µM (inactive).

For `CC(C)CC#Cc1ccc([C@@H]2[C@@H](CO)N3C(=O)CN(C(=O)c4cccc(F)c4)C[C@@H]23)cc1`, the concentration at half-maximal activity (AC50) was 15 µM and 9.46 µM.

Take `Cc1ccc(Nc2nc(-c3ccccc3Cl)nc3ccccc23)cc1`: the AC50 was 14.2 µM.

`COc1ccccc1-c1nc(CN(c2ccccc2OC)S(=O)(=O)c2ccccc2C)c(C)o1`: the AC50 is 6.87 µM.

In the case of `C=C(C)[C@@H]1CC[C@]2(C(=O)O)CC[C@]3(C)[C@H](CC[C@@H]4[C@@]5(C)CC[C@H](O)C(C)(C)[C@@H]5CC[C@]43C)[C@@H]12`, the concentration at half-maximal activity (AC50) was 30 µM.

For `COc1cc(NC(=O)Nc2ccc(-c3nc(-c4ccc(C)cc4C)co3)cc2)cc(OC)c1`, the AC50 was 25.7 µM.

As to `COc1cccc(C(=O)Nc2ccc3c(c2)C(=O)N(C)[C@@H]2CC[C@H](CC(=O)N[C@H](C)c4ccccc4)O[C@@H]2CO3)c1`, the concentration at half-maximal activity (AC50) is 19.4 µM.

Consider `O=C(CCn1cnc2cc(-c3noc(-c4cc5cc(Cl)ccc5[nH]4)n3)ccc21)N1CCCC1`, for which the concentration at half-maximal activity (AC50) is 23.7 µM.

In the case of `CN(C[C@H]1N[C@@H](CO)[C@@H]1c1ccc(C2=CCCC2)cc1)C(=O)c1cccc(F)c1`, the AC50 is 15.2 µM and 3.49 µM.

As for `CN1C(=O)c2cc(NC(=O)Cc3cccs3)ccc2OC[C@@H]2O[C@H](CC(=O)N[C@H]3CCN(Cc4ccccc4)C3)CC[C@@H]21`, the AC50 is 7.53 µM.

Take `CCN1CCN(c2nc(-c3ccc(OC)cc3)nc3ccccc23)CC1`: the AC50 is 17.4 µM.

For the compound `CSc1cccc(NC(=O)CN2CCC3(CC2)N=C(c2cccc(Cl)c2)C(=O)N3)c1`, the half-maximal activity concentration (AC50) is 23.8 µM.

`COC(=O)C[C@H]1CC[C@@H]2[C@@H](COc3ccc(NC(=O)Nc4cccc(C#N)c4)cc3C(=O)N2C)O1`: the concentration at half-maximal activity (AC50) is 27.5 µM and 18.5 µM.

Regarding `CCCCN(C)C(=O)c1cnc(-c2noc3cc(NCC4CC4)ccc23)s1`, the AC50 is 6.44 µM and 21.7 µM.

As for `COc1ccc(-c2nc(CN(c3ccccc3)S(=O)(=O)c3ccccc3)c(C)o2)cc1OC`, the AC50 is 3.77 µM.

Regarding `O=C(Cc1ccncc1)N1CCCCN2[C@H](CO)[C@H](c3ccc(C#Cc4ccccc4F)cc3)[C@H]2C1`, the concentration at half-maximal activity (AC50) was 20 µM.

In the case of `O=C(CC1N=C2c3ccccc3N=C(SCc3cccc(F)c3)N2C1=O)NC1CCCCC1` (stereo not drawn), the half-maximal activity concentration (AC50) is 30 µM.

Turning to `O=C(c1ccccc1Cl)N1CCC2(CC1)Nc1cc(F)ccc1-n1cccc12`, the AC50 is > 39 µM (inactive).

Regarding `COc1ccc(-c2nc(Cn3nnc(-c4nc(-c5ccc(OC)c(OC)c5)no4)c3C)c(C)o2)cc1`, the AC50 is 20.6 µM.

For the compound `COc1ccc2c(c1)NC1(CCN(C(=O)c3c(F)cccc3F)CC1)c1cccn1-2`, the AC50 is > 39 µM (inactive).

As for `CCc1ccc(NS(=O)(=O)c2cc3c4c(c2)CCC(=O)N4CCC3)cc1`, the AC50 was 37.7 µM.

Take `Cc1ccccc1-c1ccc([C@@H]2[C@@H](CO)N3CCCCN(S(=O)(=O)Cc4ccccc4)C[C@H]23)cc1`: the half-maximal activity concentration (AC50) was 19.8 µM.

Consider `O=C(c1ccc(-n2nc(C(F)(F)F)c3c2CCCC3)cc1)N1CCN(c2cccc(Cl)c2)CC1`, for which the AC50 was 8.82 µM.

Take `COc1ccccc1CNC(=O)CC1N=C2c3ccccc3N=C(SCc3ccccc3Cl)N2C1=O` (stereo not drawn): the AC50 was 20.4 µM.

In the case of `COc1ccc(-c2nc(CN(c3ccccc3OC)S(=O)(=O)c3ccc(OC)cc3)c(C)o2)cc1`, the half-maximal activity concentration (AC50) is 5.84 µM.

For the compound `O=S(=O)(c1ccc2c(c1)CCCC2)N1CCC2(CC1)NCCN=C2NCc1ccccc1`, the concentration at half-maximal activity (AC50) is 12.9 µM.

For the compound `O=C(C(=O)N1CCN(c2ncnc3c2nnn3Cc2ccccc2)CC1)c1c[nH]c2ccccc12`, the AC50 is 13.5 µM.

Turning to `COc1ccccc1-c1nc(CN(c2ccc(C)cc2)S(=O)(=O)c2cccs2)c(C)o1`, the AC50 was 30.4 µM.

Take `Cn1cnc(S(=O)(=O)N2CCCCN3[C@H](CO)[C@H](c4ccc(C5=CCCCC5)cc4)[C@@H]3C2)c1`: the concentration at half-maximal activity (AC50) is 18.4 µM and 20.2 µM.

In the case of `N#C[C@H]1[C@@H](c2ccc(C3=CCCCC3)cc2)[C@@H](CO)N1C(=O)Nc1ccccc1F`, the AC50 was 23.2 µM.

`CCN1CCCC1CNC(=O)C1CCN(Cc2cc3ccccc3n2Cc2ccc(F)cc2)CC1` (stereo not drawn): the concentration at half-maximal activity (AC50) was 21.2 µM.

As for `CCN(CC)CCO[C@H]1CC[C@@]2(C)C(=CC[C@@H]3[C@@H]2CC[C@]2(C)C(=O)CC[C@@H]32)C1`, the AC50 was 12 µM.

As for `Cc1ccc(NC(=O)N2CCN(Cc3nc(-c4ccccc4C)oc3C)CC2)cc1F`, the AC50 was > 39 µM (inactive).

For `CC(C)c1cc(C2CCCN2Cc2c[nH]c3ccccc23)on1` (stereo not drawn), the AC50 was 7.79 µM and 14 µM.

For the compound `COc1ccc(-c2ccc3c(c2)[C@H]2[C@H](CCN2C(=O)c2cccc(F)c2)[C@H](CO)N3)cc1`, the AC50 is 16 µM.

With `NCCCCCCCCCCNS(=O)(=O)c1cccc2c(Cl)cccc12`, the AC50 was 21.2 µM.

Consider `CCOc1ccccc1-c1nc(CN(c2cccc(OC)c2)S(=O)(=O)c2ccccc2)c(C)o1`, for which the AC50 was > 39 µM (inactive).

As to `COc1cccc(NC(=O)N2CC(=O)N3[C@H](C2)[C@H](c2ccc(C#CCC4CCCC4)cc2)[C@@H]3CO)c1`, the half-maximal activity concentration (AC50) was 14.2 µM and 9.85 µM.

In the case of `O=C(c1cccc2[nH]ccc12)N1CCCC1c1nc(-c2cccc(Cl)c2)no1` (stereo not drawn), the AC50 was 23.3 µM.

Take `CC(C)Cc1ccc(S(=O)(=O)N2CCC3(CC2)NCCN=C3NCc2ccc(Cl)cc2)cc1`: the AC50 is 12.4 µM.

Take `O=C(NCCCN1CCCC1)C1CCN(Cc2cc3ccccc3n2Cc2ccccc2Cl)CC1`: the AC50 is 25.8 µM.

In the case of `N#C[C@@H]1[C@H](c2ccc(-c3cccc(F)c3)cc2)[C@H](CO)N1C(=O)NC1CCCC1`, the AC50 was 15.1 µM and 4.56 µM.

On to `COc1ccc(OCC(=O)N2CCC3(CC2)Nc2cc(OC)ccc2-n2cccc23)cc1`, for which the AC50 was 38.3 µM.

Regarding `O=C(CC1N=C2c3ccccc3N=C(SCc3ccccc3Cl)N2C1=O)NCCc1ccccc1` (stereo not drawn), the concentration at half-maximal activity (AC50) was 15.9 µM.

For `O=C(CC1CCC2(CC1)CCN(c1ncc(F)cn1)CC2)N1CC=CC1`, the AC50 is 19.3 µM.

In the case of `CCCc1cc(C2CCCN2C(=O)Cn2nc(C(F)(F)F)c3c2CCCC3)no1` (stereo not drawn), the concentration at half-maximal activity (AC50) is 21.6 µM.

Consider `O=C(c1cccc(F)c1)N1CCCCN2[C@H](C1)[C@@H](c1ccc(C#CC3(O)CCCC3)cc1)[C@@H]2CO`, for which the AC50 is 11 µM and 29.4 µM.

As for `O=C(Nc1cccc(F)c1)N1CCCCN2[C@H](C1)[C@@H](c1ccc(C#Cc3cccnc3)cc1)[C@@H]2CO`, the half-maximal activity concentration (AC50) was 10.3 µM.

For the compound `CCCCC(CC)CNC(=O)CC1Nc2c3ccccc3nc(=S)n2C1=O` (stereo not drawn), the AC50 is 17.9 µM.

`COc1ccccc1-c1nc(C)c(-c2ccc(SCc3ccccc3Cl)nn2)s1`: the AC50 was > 39 µM (inactive).

For the compound `COc1ccc(-c2nc(Nc3ccc(CN4CCCCC4)cc3)c3ccccc3n2)cc1`, the AC50 is 12 µM.

Take `O=C(CC1N=C2c3ccccc3N=C(SCc3ccccc3Cl)N2C1=O)NCc1cccs1` (stereo not drawn): the concentration at half-maximal activity (AC50) was 21.5 µM.

For `Cc1oc(-c2ccccc2)nc1CSc1nc2c(c(=O)[nH]1)CN(Cc1ccccc1)CC2`, the concentration at half-maximal activity (AC50) is 15.4 µM.

As to `Cc1ccc(N2CC(NC(=O)C(=O)c3c[nH]c4ccccc34)CC2=O)cc1` (stereo not drawn), the AC50 is > 39 µM (inactive).

In the case of `COc1cccc(C#Cc2ccc([C@@H]3[C@H](C#N)N(C(=O)c4ccccn4)[C@H]3CO)cc2)c1`, the AC50 was 20.7 µM.
